Where a name gives a salt, the structure may show the parent alone.
The compounds below were run on ICR CD strain male mice (assay: Gastric emptying enhancing activity (phenol red meal)). Conditions: Mus musculus, ip, 0.25 h, 3.0 mg/kg i.p., gastric emptying at 15 min after test meal, increase vs vehicle.
Type: in vivo
Experimental: ICR CD strain male mice (body weight, 25˜30 g; 8 mice per one group) were fasted for 24 h but allowed free access to water until 3 hours before the test.
Compounds to be tested for promoting GI motility were injected intraperitoneally or given orally at 30 min or 60 min prior to phenol red meal administration. Fifteen (15) min after administration of a test meal (0.5% Phenol red in 1.5% methylcellulose solution), mice were sacrificed and the stomach (pylorus˜cardia) was removed and collected to vial. The stomach was homogenized with its contents in 0.1N NaOH and the mixture was centrifuged (700*g) for 20 min. 2.5 mL of the supernatant was added to 0.25 mL of trichloroacetic acid solution (20% w/v) to precipitate proteins. After centrifuging (2600*g) for 20 min, 0.5 mL of the supernatant was added to 0.25 mL of 1N NaOH. The mixture was homogenized and its absorbance (Abs) was read at 560 nm.
In each experiment, one group was sacrificed just after the administration of the test meal and was considered as a standard (0% emptying). The gastric emptying (GE) at the 15 min period was calculated according to the following formula. GE (%)=(1−Abstest/Absstandard)×100 Increase (%)=(GE %test−GE %vehicle)/GE %vehicle*100

Compound | change in vivo at 3 mg/kg
COc1cccc(C(CCN2CCC(CNC(=O)c3cc(Cl)c(N)cc3OC)CC2)NC(=O)O)c1 (stereo not shown) [Example 63, [3-[4-[[(4-amino-5-chloro-2-methoxybenzoyl)amino]methyl]piperidin-1-yl]-1-(3-methoxyphenyl)propyl]carbamate; hydrochloride] | 24.4%
COc1cc(N)c(Cl)cc1C(=O)NCC1CCN(CCC(O)c2cccs2)CC1 (stereo not shown) [Example 50, 4-amino-5-chloro-N-[[1-(3-hydroxy-3-thiophen-2-ylpropyl)piperidin-4-yl]methyl]-2-methoxybenzamide; hydrochloride] | 3.9%
Cc1ccccc1OCC(CN1CCC(CNC(=O)n2c(=O)n(C(C)C)c3ccccc32)CC1)NC(=O)O (stereo not shown) [Example 123, [1-(2-methylphenoxy)-3-[4-[[(2-oxo-3-propan-2-ylbenzimidazole-1-carbonyl)amino]methyl]piperidin-1-yl]propan-2-yl]carbamate; hydrochloride] | 56.8%
COc1cc(N)c(Cl)cc1C(=O)NCC1CCN(CC(O)c2ccc(C)cc2)CC1 (stereo not shown) [Example 3, 4-amino-5-chloro-N-[[1-[2-hydroxy-2-(4-methylphenyl)ethyl]piperidin-4-yl]methyl]-2-methoxybenzamide; hydrochloride] | 71.1%
COc1cc(N)c(Cl)cc1C(=O)NCC1CCN(CC(O)COc2ccc(F)cc2)CC1 (stereo not shown) [Example 72, 4-amino-5-chloro-N-[[1-[3-(4-fluorophenoxy)-2-hydroxypropyl]piperidin-4-yl]methyl]-2-methoxybenzamide; hydrochloride] | 48.1%
CC(C)n1c(=O)n(C(=O)NCC2CCN(CCC(O)c3ccccc3)CC2)c2ccccc21 (stereo not shown) [Example 136, N-[[1-(3-hydroxy-3-phenylpropyl)piperidin-4-yl]methyl]-2-oxo-3-propan-2-ylbenzimidazole-1-carboxamide; hydrochloride] | 64.1%
COc1cc(N)c(Cl)cc1C(=O)NCC1CCN(CC(COc2ccc(C(F)(F)F)cc2)NC(=O)O)CC1 (stereo not shown) [Example 100, [1-[4-[[(4-amino-5-chloro-2-methoxybenzoyl)amino]methyl]piperidin-1-yl]-3-[4-(trifluoromethyl)phenoxy]propan-2-yl]carbamate; hydrochloride] | 46.1%
COc1cc(N)c(Cl)cc1C(=O)NCC1CCN(CC(COc2ccccc2)OC(=O)N2CCCCC2)CC1 (stereo not shown) [Example 88, [1-[4-[[(4-amino-5-chloro-2-methoxybenzoyl)amino]methyl]piperidin-1-yl]-3-phenoxypropan-2-yl]piperidine-1-carboxylate; hydrochloride] | 44.1%
COc1cc(N)c(Cl)cc1C(=O)NCC1CCN(CCC(Cc2ccc(F)cc2)NC(=O)O)CC1 (stereo not shown) [Example 65, [4-[4-[[(4-amino-5-chloro-2-methoxybenzoyl)amino]methyl]piperidin-1-yl]-1-(4-fluorophenyl)butan-2-yl]carbamate; hydrochloride] | 93.1%
CC(C)n1c(=O)n(C(=O)NCC2CCN(CC(O)COc3ccccc3)CC2)c2ccccc21 (stereo not shown) [Example 104, N-[[1-(2-hydroxy-3-phenoxypropyl)piperidin-4-yl]methyl]-2-oxo-3-propan-2-ylbenzimidazole-1-carboxamide; hydrochloride] | 81%
COc1cc(N)c(Cl)cc1C(=O)NCC1CCN(CCC(NC(=O)O)c2ccc(Cl)c(Cl)c2)CC1 (stereo not shown) [Example 61, [3-[4-[[(4-amino-5-chloro-2-methoxybenzoyl)amino]methyl]piperidin-1-yl]-1-(3,4-dichlorophenyl)propyl]carbamate; hydrochloride] | 44.3%
COc1cc(N)c(Cl)cc1C(=O)NCC1CCN(CCC(NC(=O)O)c2cccc(Cl)c2Cl)CC1 (stereo not shown) [Example 59, [3-[4-[[(4-amino-5-chloro-2-methoxybenzoyl)amino]methyl]piperidin-1-yl]-1-(2,3-dichlorophenyl)propyl]carbamate; hydrochloride] | 48%
COc1cccc(C(O)CCN2CCC(CNC(=O)c3cc(Cl)c(N)cc3OC)CC2)c1 (stereo not shown) [Example 49, 4-amino-5-chloro-N-[[1-[3-(3-methoxyphenyl)-3-hydroxypropyl]piperidin-4-yl]methyl]-2-methoxybenzamide; hydrochloride] | 17.8%
COc1cc(N)c(Cl)cc1C(=O)NCC1CCN(CCC(O)c2ccc(C(C)C)cc2)CC1 (stereo not shown) [Example 48, 4-amino-5-chloro-N-[[1-[3-(4-isopropylphenyl)-3-hydroxypropyl]piperidin-4-yl]methyl]-2-methoxybenzamide; hydrochloride] | 3.5%
COc1cc(N)c(Cl)cc1C(=O)NCC1CCN(CC(O)c2ccc(F)cc2)CC1 (stereo not shown) [Example 2, 4-amino-5-chloro-N-[[1-[2-(4-fluorophenyl)-2-hydroxyethyl]piperidin-4-yl]methyl]-2-methoxybenzamide; hydrochloride] | 42.6%
COc1cc(N)c(Cl)cc1C(=O)NCC1CCN(CC(COc2c(Cl)cccc2Cl)NC(=O)O)CC1 (stereo not shown) [Example 98, [1-[4-[[(4-amino-5-chloro-2-methoxybenzoyl)amino]methyl]piperidin-1-yl]-3-(2,6-dichlorophenoxy)propan-2-yl]carbamate; hydrochloride] | 63.6%
COc1cc(N)c(Cl)cc1C(=O)NCC1CCN(CCC(O)c2ccc(F)cc2)CC1 (stereo not shown) [Example 37, 4-amino-5-chloro-N-[[1-[3-(4-fluorophenyl)-3-hydroxypropyl]piperidin-4-yl]methyl]-2-methoxybenzamide; hydrochloride] | 70.7%
COc1cc(N)c(Cl)cc1C(=O)NCC1CCN(CCC(O)Cc2ccc(F)cc2)CC1 (stereo not shown) [Example 51, 4-amino-5-chloro-N-[[1-[4-(4-fluorophenyl)-3-hydroxybutyl]piperidin-4-yl]methyl]-2-methoxybenzamide; hydrochloride] | 122%
COc1ccc(C(O)CN2CCC(CNC(=O)c3cc(Cl)c(N)cc3OC)CC2)cc1 (stereo not shown) [Example 4, 4-amino-5-chloro-N-[[1-[2-hydroxy-2-(4-methoxyphenyl)ethyl]piperidin-4-yl]methyl]-2-methoxybenzamide; hydrochloride] | 74.1%
COc1cc(N)c(Cl)cc1C(=O)NCC1CCN(CC(O)c2ccccc2OC)CC1 (stereo not shown) [Example 8, 4-amino-5-chloro-N-[[1-[2-hydroxy-2-(2-methoxyphenyl)ethyl]piperidin-4-yl]methyl]-2-methoxybenzamide; hydrochloride] | 51.6%
COc1cc(N)c(Cl)cc1C(=O)NCC1CCN(CCC(NC(=O)O)c2ccc(C(C)C)cc2)CC1 (stereo not shown) [Example 62, [3-[4-[[(4-amino-5-chloro-2-methoxybenzoyl)amino]methyl]piperidin-1-yl]-1-(4-isopropylphenyl)propyl]carbamate; hydrochloride] | 17.9%
COc1cc(N)c(Cl)cc1C(=O)NCC1CCN(CCC(O)c2ccc(Cl)c(Cl)c2)CC1 (stereo not shown) [Example 47, 4-amino-5-chloro-N-[[1-[3-(3,4-dichlorophenyl)-3-hydroxypropyl]piperidin-4-yl]methyl]-2-methoxybenzamide; hydrochloride] | 25.9%
COc1cc(N)c(Cl)cc1C(=O)NCC1CCN(CCC(O)c2ccccc2F)CC1 (stereo not shown) [Example 43, 4-amino-5-chloro-N-[[1-[3-(2-fluorophenyl)-3-hydroxypropyl]piperidin-4-yl]methyl]-2-methoxybenzamide; hydrochloride] | 46.1%
CC(C)n1c(=O)n(C(=O)NCC2CCN(CC(COc3ccc(F)cc3)NC(=O)O)CC2)c2ccccc21 (stereo not shown) [Example 122, [1-(4-fluorophenoxy)-3-[4-[[(2-oxo-3-propan-2-ylbenzimidazole-1-carbonyl)amino]methyl]piperidin-1-yl]propan-2-yl]carbamate; hydrochloride] | 6.8%
COc1ccc(C(O)CCN2CCC(CNC(=O)c3cc(Cl)c(N)cc3OC)CC2)cc1 (stereo not shown) [Example 40, 4-amino-5-chloro-N-[[1-[3-hydroxy-3-(4-methoxyphenyl)propyl]piperidin-4-yl]methyl]-2-methoxybenzamide; hydrochloride] | 51.6%
COc1cc(N)c(Cl)cc1C(=O)NCC1CCN(CCC(O)c2cccc(Cl)c2Cl)CC1 (stereo not shown) [Example 45, 4-amino-5-chloro-N-[[1-[3-(2,3-dichlorophenyl)-3-hydroxypropyl]piperidin-4-yl]methyl]-2-methoxybenzamide; hydrochloride] | 51.4%
COc1ccc(OC)c(C(O)CN2CCC(CNC(=O)c3cc(Cl)c(N)cc3OC)CC2)c1 (stereo not shown) [Example 15, 4-amino-5-chloro-N-[[1-[2-(2,5-dimethoxyphenyl)-2-hydroxyethyl]piperidin-4-yl]methyl]-2-methoxybenzamide; hydrochloride] | 78.7%
COc1cc(N)c(Cl)cc1C(=O)NCC1CCN(CCC(O)c2ccc(Cl)cc2)CC1 (stereo not shown) [Example 38, 4-amino-5-chloro-N-[[1-[3-(4-chlorophenyl)-3-hydroxypropyl]piperidin-4-yl]methyl]-2-methoxybenzamide; hydrochloride] | 49.1%

Reference: patent US10144709B2, “Piperidine compounds, pharmaceutical composition comprising the same and its use” (SK BIOPHARMACEUTICALS CO., LTD., priority 2008, dated 2018)
